# Source: publication PMC9865752, “Design and Synthesis of (Z)-2-(Benzylamino)-5-benzylidenethiazol-4(5H)-one Derivatives as Tyrosinase Inhibitors and Their Anti-Melanogenic and Antioxidant Effects” (Molecules, 2023)
# Like-named read-outs stand apart in the source and are kept apart here.
# Experiments:
# mushroom tyrosinase = assay: Mushroom tyrosinase inhibition assay; assay type: biochemical; conditions: for IC50: mean ± SEM of three experiments
# Procedure: As mushroom tyrosinase is commercially available and relatively cheap, it is used as a tool for the identification of novel tyrosinase inhibitors. Here, we examined the tyrosinase inhibitory activities of the 14 BABT derivatives against mushroom tyrosinase in the presence of L-tyrosine or L-dopa as substrates.
# Mushroom tyrosinase inhibitory activities of BABT derivatives were determined as described previously, with minor modifications. L-Tyrosine and L-dopa were used as substrates to evaluate the enzyme activity. […] Assay mixtures were incubated at 37 °C for 30 min, and dopachrome amounts synthesized were determined by measuring the optical density of each well at 475 nm using a microplate reader (VersaMax; Molecular Devices, Sunnyvale, CA, USA).
# B16F10 cells = assay: Cell viability (EZ-Cytox assay); assay type: cell-based, murine; conditions: 0, 1, 2, 5, 10, 20 µM, 72 h
# Procedure: Before these experiments were performed, the influence of these derivatives on cytotoxicity in B16F10 cells was examined to determine their optimal concentration range for B16F10 cell experiments. The cytotoxicity of derivatives 7 and 8 at six concentrations (0, 1, 2, 5, 10, and 20 µM) was assessed using the EZ-Cytox assay.
# Cytotoxicity assays in B16F10 cells were performed using the EZ-Cytox solution (EZ-3000, DoGenBio, Seoul, Republic of Korea). Briefly, B16F10 cells were seeded at a density of 1 × 10^4 cells per well and cultured at 37 °C in a 5% CO2 atmosphere for 24 h. […] Then, the EZ-Cytox solution (10 μL aliquot) was added to each well. After 2 h of incubation at 37 °C, the optical density of each well was measured at 450 nm using a microplate reader (VersaMax; Molecular Devices).
# [1] = ABTS radical scavenging assay; conditions: test samples 100 µM; 2 min in the dark
# Procedure: An antioxidant assay using ABTS is also commonly used to assess the antioxidant activities of compounds. Donation of one electron from ABTS to potassium persulfate generates the ABTS radical cation. An ABTS radical scavenging activity assay was performed using 100 µM of BABT derivatives or Trolox (a positive reference control) by mixing test samples with ABTS radical cations obtained from a reaction of potassium persulfate and ABTS. ABTS radical scavenging activity was assessed by measuring the optical density at 734 nm after leaving the test sample–ABTS radical cation mixture in the dark for 2 min.
# According to a previously described method, with minor modifications, the ABTS radical scavenging activities of BABT derivatives 1–14 were assessed. Briefly, an ABTS radical solution was prepared by mixing 10 mL of aqueous ABTS solution (7 mM) with 10 mL of potassium persulfate aqueous solution (2.45 mM), and the mixture was kept for 11–15 h in the dark at room temperature until the absorbance remained constant. Prior to the antioxidant assay experiments, the ABTS radical solution was diluted with water to adjust the absorbance at 734 nm to 0.70 ± 0.02. A 10 µL aliquot of BABT derivatives or Trolox at a concentration of 1000 µM was added to 90 µL of ABTS+ free radical solution in each well of a 96-well plate and incubated for 2 min in the dark at ambient temperature. The absorbance of each well was measured at 734 nm using a microplate reader (VersaMax; Molecular Devices). The ABTS+ radical scavenging activities of BABT derivatives were compared to those of Trolox. All experiments were carried out independently, thrice.
# [2] = Peroxynitrite scavenging assay; conditions: 20 µM; SIN-1 as generator; DHR123 probe
# Procedure: The effects of the BABT derivatives on peroxynitrite scavenging activities were also examined using SIN-1 as an RNS generator and dihydrorhodamine (DHR123) as an ROS indicator. DHR123 was converted to fluorescent rhodamine 123 by peroxynitrite generated by SIN-1. Therefore, the peroxynitrite scavenging activities of 1–14 were assessed by measuring the fluorescence of rhodamine 123. BABT derivatives and penicillamine, the positive control, were used at a concentration of 20 µM.
# The peroxynitrite scavenging activities of the BABT derivatives were assessed using the method developed by Kooy, involving the monitoring of highly fluorescent rhodamine 123, which was rapidly produced from non-fluorescent DHR123 in the presence of peroxynitrite. Rhodamine buffer (pH 7.4) was composed of 50 mM sodium phosphate dibasic, 50 mM sodium phosphate monobasic, 90 mM sodium chloride, 5 mM potassium chloride, and 100 µM DTPA. A 10 µL aliquot of BABT derivatives or PCA (final concentration: 20 µM) was seeded in a black 96-well plate. Then, 10 µL of SIN-1 (10 µM) was added to induce radical species generation and mixed with 180 µL of rhodamine buffer. Fluorescence intensity was measured at emission and excitation wavelengths of 535 and 485 nm, respectively, using a fluorescence microplate reader (Berthold Technologies GmbH & Co.). PCA was used as the positive control.
# [3] = target: T1, B16F10 cellular tyrosinase (Mus musculus, UniProt P11344); assay: Cellular anti-tyrosinase activity assay; assay type: cell-based, murine; conditions: α-MSH plus IBMX stimulated B16F10 cells, 72 h
# T1 construct: host or cells: B16F10 murine melanoma cells
# T1 sequence (P11344 19-533): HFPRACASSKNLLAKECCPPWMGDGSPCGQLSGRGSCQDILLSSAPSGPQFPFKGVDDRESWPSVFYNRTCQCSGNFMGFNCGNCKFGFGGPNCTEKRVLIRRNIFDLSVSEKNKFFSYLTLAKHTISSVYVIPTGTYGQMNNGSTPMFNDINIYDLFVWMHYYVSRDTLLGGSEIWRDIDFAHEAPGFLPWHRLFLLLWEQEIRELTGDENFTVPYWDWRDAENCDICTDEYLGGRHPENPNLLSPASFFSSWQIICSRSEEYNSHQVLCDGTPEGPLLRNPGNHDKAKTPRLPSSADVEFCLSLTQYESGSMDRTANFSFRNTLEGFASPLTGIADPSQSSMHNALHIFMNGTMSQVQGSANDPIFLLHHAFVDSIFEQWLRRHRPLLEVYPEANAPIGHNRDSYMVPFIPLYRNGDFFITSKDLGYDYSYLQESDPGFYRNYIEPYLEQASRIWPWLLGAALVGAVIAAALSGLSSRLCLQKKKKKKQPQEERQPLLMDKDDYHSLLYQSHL
# Procedure: Briefly, B16F10 cells were seeded at 1 × 10^5 cells/well in a 6-well plate and allowed to adhere to well bottoms for 24 h. […] Then, a stimulator (0.5 µM α-MSH plus 200 µM IBMX) was applied to increase the cellular tyrosinase activity, and the cells were cultured for 72 h under the conditions used for cell cultures. Cultured cells were washed twice with PBS and exposed to an aliquot (100 µL) of the lysis buffer solution containing 20% Triton X-100 (5 µL), 50 mM phosphate buffer (pH 6.5, 90 µL), and 2 mM phenylmethylsulfonyl fluoride (5 µL) to lyse the cultured cells for 30 min at −80 °C. After defrosting, the cell lysates were transferred to microcentrifuge tubes and centrifuged for 30 min at 4 °C and 12,000 rpm, and the supernatants (80 µL) in each well were mixed with 20 µL L-dopa (2 mg/mL) and incubated at 37 °C for 10 min. The absorbance of dopachrome was measured at 475 nm using a microplate reader (VersaMax; Molecular Devices).
smiles,measurement,setting,value
"O=C1N=C(NCc2ccccc2)S/C1=C\c1ccc(O)cc1O [Compound 8, (Z)-2-(benzylamino)-5-(2,4-dihydroxybenzylidene)thiazol-4(5H)-one]",fold higher IC50 value with L-dopa than with L-tyrosine,mushroom tyrosinase; L-dopa versus L-tyrosine as substrate,4 fold
same,IC50,"mushroom tyrosinase; substrate L-dopa, read-out: IC50 (µM) L-Dopa",1.04 ± 0.05 µM
same,fold more potent than kojic acid,mushroom tyrosinase; substrate L-tyrosine,106 fold
same,IC50,"mushroom tyrosinase; substrate L-tyrosine, read-out: IC50 (µM) L-Tyrosine",0.27 ± 0.03 µM
same,cytotoxicity,B16F10 cells,no cytotoxicity until 72 h at all tested concentrations
same,"ABTS radical scavenging activity, % inhibition",[1],96%
same,peroxynitrite scavenging activity (in words),[2],scavenged peroxynitrite more potently than did penicillamine
same,inhibition of cellular tyrosinase activity (in words),[3]; 5 µM,more than that by kojic acid at 20 µM
same,cellular tyrosinase activity compared to untreated control,[3]; 20 µM,1.7 fold
